Laboratory results taken from patent US20100168468A1, “WRINKLE-PREVENTING AND IMPROVING COMPOSITION” (Kyowa Hakko Kirin Co., Ltd., priority 2005, published 2010).

System: Fibroblasts
Test: Production amount of type I collagen by fibroblasts
Assay type: cell-based
Conditions: cultured for two days in DMEM without growth factors; amount without sarcosine set as 100 (FIG. 4)
Description: The production of collagen was measured in the following method. Fibroblasts were plated on 24 wells, and were allowed to stand while culturing until the cells fully adhered. Then, the culture liquid (DMEM supplemented with growth factors) was replaced with a medium (DMEM without growth factors) to which the drug (sarcosine) was added to the desired concentration, and cultured for two days. The culture supernatant was removed, and the production amount of type I collagen was determined using the TAKARA's Procollagen type I-Cppeptide EIA KIT. Cell counts were determined by measuring the amount of DNA using Hoechst and then converting it to a cell count. Finally the production amount of collagen was compared as the production amount of collagen per unit cell.

Which “production amount of collagen per unit cell” value does the source give for `CNCC(=O)O` [sarcosine] here?
Its value is “increases with sarcosine addition in dose dependent manner”.
